Holding throughout (format): biochemical
The target of one test is T1, human IGF1R (hIGF1R) (Homo sapiens, UniProt P08069).
T1 construct: containing amino acid residues 957-1367 of human IGF1R; made in house; host or cells: Sf9 cells (baculovirus)
Description: TR-FRET kinase assay of purified hIGF1R. The settings on record: activated hIGF1R 0.5 nM, 10 μM ATP, values given as pIC50 category, read-out: IGF-1R pIC50 (converted). As to the method: (§1) Time Resolved Fluorescence Resonance Energy Transfer (TR-FRET) assays were carried out on the exemplified compounds as follows:
(§2) Purity is determined by HPLC. The calculated molecular mass of the peptide is 2216 dalton. Tyrosine phosphorylation by human IGF1R (hIGF1R) or human IR (hIR) occurs as indicated (Y*) in the peptide sequence described. Solid peptide sample is dissolved to approximately 1 mM in DMSO, aliquoted, and stored at −20° C. until use. True peptide concentration is determined by amino acid analysis.
hIGF1R: GST-rTEV-IGF-1R(957-1367) containing amino acid residues 957-1367 of human IGF1R (as annotated by National Center for Biotechnology Information (NCBI) accession number NP_000866) is purified from a baculovirus expression system in Sf9 cells using Glutathione Sepharose 4FF column chromatography followed by Sephadex-200 size exclusion column chromatography. […] Samples, in 25 mM Tris-HCl, 250 mM NaCl, 5% glycerol, 1 mM DTT, pH 7.5, are stored at −80° C. until use.
hIGF1R: Activation of GST-rTEV-IGF-1R(957-1367) is achieved by a 4 minute incubation of hIGF1R (2.7 μM final) with 2 mM ATP in 50 mM HEPES, 20 mM MgCL2, 0.1 mg/ml BSA, at room temperature. Autophosphorylation is stopped by addition of EDTA (to 100 mM final). Aliquoted samples are flash frozen in liquid nitrogen and stored at −80° C. until use.
(§3) Assays are performed in 384-well (Greiner, Catalog No. 784076) microtiter plates. Reaction buffer (50 mM HEPES buffer, pH 7.5; 10 mM MgCL2; 3 mM DTT; 1 mM CHAPS; 0.1 mg/ml BSA) for peptide phosphorylation (10 μl volume) contained, in final concentrations, 500 nM biotinylated peptide substrate; 10 μM ATP; and purified, activated hIGF1R or hIR (0.5 nM). Compounds, titrated in DMSO, are evaluated at eleven concentrations ranging from 50 μM to 0.2 nM. […] Reactions are incubated for 1 hour at room temperature and are stopped by a 5 μl addition of EDTA (to 33 mM). A further addition of 5 μl detection reagents (for final 7 nM Streptavidin-APC (Perkin Elmer #CR^130-150), 1 nM Europium-labeled anti-phosphotyrosine monoclonal antibody (PerkinElmer #AD0067), added in reaction buffer (without DTT), is required for signal generation. After 30 minutes, signal is read on PerkinElmer Viewlux microplate imager or Wallac Victor fluorometer.
(§4) The data for compound concentration responses were plotted as % Inhibition, calculated with the data reduction formula 100*(1-[(U1-C2)/(C1-C2)]), versus concentration of compound, where • U is the unknown value, • C1 is the average control value obtained for DMSO only, and • C2 is the average control value obtained for reactions stopped with EDTA at • t=0.
(§5) Data were fitted to the curve described by: y=((Vmax*x)/(K+x)) where • Vmax is the upper asymptote and • K is the IC50.

The next test deals with T2, human IR (hIR) (Homo sapiens, UniProt P06213).
T2 construct: containing amino acid residues 979-1382 of human IR; made in house; host or cells: Sf9 cells (baculovirus), same process as hIGF1R
Description: TR-FRET kinase assay of purified hIR. As to conditions: activated hIR 0.5 nM, 10 μM ATP, values given as pIC50 category. As to the method: as §1, §2
hIR: GST-rTEV-IR(979-1382) containing amino acid residues 979-1382 of human IR (as annotated by NCBI accession number NP_000199) is expressed and purified by the same process as hIGF1R. […] Samples, in 25 mM Tris-HCl, 250 mM NaCl, 5% glycerol, 1 mM DTT, pH 7.5, are stored at −80° C. until use.
hIR: Activation of GST-rTEV-IGF-1R(957-1367) is achieved by a 5 minute incubation of hIR (2.7 μM final) with 2 mM ATP in 100 mM HEPES, 10 mM MgCL2, 0.1 mg/ml BSA, at room temperature. Autophosphorylation is stopped by addition of EDTA (to 100 mM final). Aliquoted samples are flash frozen in liquid nitrogen and stored at −80° C. until use.
as §3, §4, §5

In another test the target is ALK (Homo sapiens, UniProt Q9UM73). Description: ALK enzyme assay (HTRF). As to conditions: 0.25 nM ALK, 15.0 μM ATP, values given as pIC50 category. Here is the method:
The method measures the ability of the isolated enzyme to catalyse the transfer of the gamma-phosphate from ATP onto the tyrosine residue of a biotinylated synthetic peptide. The extent of tyrosine phosphorylation was measured using an anti-phosphotyrosine antibody, and quantified by homogenous time-resolved fluorescence (HTRF) assay purchased from CisBio (62TK0PEJ).
Reactions were performed in black 384-well polystyrene low volume plates in a final volume of 5 μl.
The reactions were then started by adding the substrate mix. The reactions were allowed to proceed for 120 minutes at 20° C. The reactions were then terminated by the addition of 5 μl HTRF detection mix to each well. The final concentrations of the detection reagents were: 50 mM HEPES (pH7.0); 0.1% BSA; 0.8 M KF; 20 mM EDTA; 1 mM CHAPS; TK-antibody Europium Cryptate; and 41 nM streptavidin-XL665. Assay plates were left unsealed, stacked and incubated at 20° for 60 minutes. Quantification of activity was achieved by counting in an Envision Counter (PerkinElmer).
Compounds under analysis were dissolved in Me2SO to 1.0 mM and serially diluted 1 to 3 with Me2SO through twelve dilutions. 0.05 μl of each concentration was transferred to the corresponding well of an assay plate. This creates a final compound concentration range from 0.00017 to 10 μM.
The data for dose responses were plotted as % Inhibition calculated with the data reduction formula 100*(1-(U1-C2)/(C1-C2)) versus concentration of compound where U is the unknown value, C1 is the average control value obtained for 1% DMSO, and C2 is the average control value obtained for 0.1 M EDTA. Data were fitted with a curve described by:
[formula] where A is the minimum y, B is the maximum y concentration [M], D is the slope factor, and x is the log10 of the compound.
(In general: In TR-FRET formats the signal depends on donor and acceptor labels being close together.)

T1 sequence (P08069 957-1367): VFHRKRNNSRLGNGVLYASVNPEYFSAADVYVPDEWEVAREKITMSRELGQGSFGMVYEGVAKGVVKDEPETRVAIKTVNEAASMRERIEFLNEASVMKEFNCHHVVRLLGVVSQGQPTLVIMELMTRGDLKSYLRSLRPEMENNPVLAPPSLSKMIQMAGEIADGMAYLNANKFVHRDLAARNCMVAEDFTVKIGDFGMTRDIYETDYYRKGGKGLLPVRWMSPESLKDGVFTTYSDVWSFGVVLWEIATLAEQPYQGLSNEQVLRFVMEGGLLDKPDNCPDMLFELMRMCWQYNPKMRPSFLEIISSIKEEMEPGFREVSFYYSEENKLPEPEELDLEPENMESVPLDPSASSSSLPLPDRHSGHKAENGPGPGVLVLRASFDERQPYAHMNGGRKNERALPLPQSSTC
Sequence of ALK (Q9UM73 19-1620): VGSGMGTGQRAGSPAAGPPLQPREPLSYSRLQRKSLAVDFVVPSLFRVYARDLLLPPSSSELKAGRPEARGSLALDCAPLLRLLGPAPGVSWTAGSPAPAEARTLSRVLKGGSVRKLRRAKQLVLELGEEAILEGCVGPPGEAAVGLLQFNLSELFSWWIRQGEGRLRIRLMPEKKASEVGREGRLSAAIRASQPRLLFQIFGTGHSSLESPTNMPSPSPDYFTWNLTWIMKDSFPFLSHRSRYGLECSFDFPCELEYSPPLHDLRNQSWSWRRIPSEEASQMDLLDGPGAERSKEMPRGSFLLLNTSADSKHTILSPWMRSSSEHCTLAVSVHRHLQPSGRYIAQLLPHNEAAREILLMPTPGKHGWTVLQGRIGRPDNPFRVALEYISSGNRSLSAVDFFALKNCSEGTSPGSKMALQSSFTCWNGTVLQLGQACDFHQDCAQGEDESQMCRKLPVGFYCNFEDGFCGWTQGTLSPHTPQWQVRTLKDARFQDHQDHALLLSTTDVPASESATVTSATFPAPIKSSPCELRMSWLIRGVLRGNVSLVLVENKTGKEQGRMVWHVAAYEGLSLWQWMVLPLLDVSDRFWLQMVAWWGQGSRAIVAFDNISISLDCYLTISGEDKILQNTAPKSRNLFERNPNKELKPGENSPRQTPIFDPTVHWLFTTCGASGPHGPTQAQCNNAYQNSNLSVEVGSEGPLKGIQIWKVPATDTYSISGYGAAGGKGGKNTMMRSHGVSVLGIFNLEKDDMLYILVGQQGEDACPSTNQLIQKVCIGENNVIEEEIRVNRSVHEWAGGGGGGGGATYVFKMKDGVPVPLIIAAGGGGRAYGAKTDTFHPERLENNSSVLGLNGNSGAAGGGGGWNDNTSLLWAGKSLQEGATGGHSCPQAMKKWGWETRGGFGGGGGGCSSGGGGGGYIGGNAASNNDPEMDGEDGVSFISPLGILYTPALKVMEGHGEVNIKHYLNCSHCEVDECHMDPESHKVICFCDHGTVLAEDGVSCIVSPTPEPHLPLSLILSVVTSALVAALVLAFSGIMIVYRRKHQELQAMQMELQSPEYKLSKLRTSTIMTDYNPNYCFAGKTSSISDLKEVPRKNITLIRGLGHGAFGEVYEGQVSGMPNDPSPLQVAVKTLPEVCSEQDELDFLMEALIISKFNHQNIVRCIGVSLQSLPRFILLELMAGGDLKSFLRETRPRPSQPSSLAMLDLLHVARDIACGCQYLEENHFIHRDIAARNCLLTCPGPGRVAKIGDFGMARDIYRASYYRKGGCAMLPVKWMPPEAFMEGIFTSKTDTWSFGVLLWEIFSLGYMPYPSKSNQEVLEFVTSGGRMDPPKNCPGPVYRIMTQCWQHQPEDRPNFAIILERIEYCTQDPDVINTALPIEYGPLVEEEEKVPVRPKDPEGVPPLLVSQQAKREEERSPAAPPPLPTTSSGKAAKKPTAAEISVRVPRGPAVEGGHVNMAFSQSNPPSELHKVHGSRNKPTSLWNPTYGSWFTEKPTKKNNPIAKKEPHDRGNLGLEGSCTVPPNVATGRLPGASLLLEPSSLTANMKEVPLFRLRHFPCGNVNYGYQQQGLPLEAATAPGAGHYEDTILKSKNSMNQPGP
T2 sequence (P06213 979-1382): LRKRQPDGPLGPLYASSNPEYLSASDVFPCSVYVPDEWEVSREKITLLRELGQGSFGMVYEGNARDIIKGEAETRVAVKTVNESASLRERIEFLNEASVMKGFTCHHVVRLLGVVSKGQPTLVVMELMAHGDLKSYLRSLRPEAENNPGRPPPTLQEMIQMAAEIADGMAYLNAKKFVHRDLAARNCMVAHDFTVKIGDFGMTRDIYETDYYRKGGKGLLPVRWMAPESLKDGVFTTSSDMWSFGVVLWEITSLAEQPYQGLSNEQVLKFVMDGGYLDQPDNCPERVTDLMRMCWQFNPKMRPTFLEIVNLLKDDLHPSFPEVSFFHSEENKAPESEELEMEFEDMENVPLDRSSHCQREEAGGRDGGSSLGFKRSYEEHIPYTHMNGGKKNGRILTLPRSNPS

With `CCCN1CCC=C(c2ccc(Nc3nc(Nc4ccccc4C(N)=O)c4cc[nH]c4n3)c(C)c2)C1` [Example 1, 2-[(2-{[2-methyl-4-(1-propyl-1,2,5,6-tetrahydro-3-pyridinyl)phenyl]amino}-1H-pyrrolo[2,3-d]pyrimidin-4-yl)amino]benzamide], the IC50 is 5.01 to 200 nM at human IGF1R (hIGF1R), 5.01 to 158 nM against human IR (hIR) and 0.251 to 1 nM against ALK.

Regarding `Cc1ccc(NC(=O)CN(C)C)cc1Nc1nc(Nc2ccccc2C(N)=O)c2cc[nH]c2n1` [Example 13, 2-{[2-({5-[(N,N-dimethylglycyl)amino]-2-methylphenyl}amino)-1H-pyrrolo[2,3-d]pyrimidin-4-yl]amino}benzamide], the IC50 was 1.26 to 3.98 nM on human IGF1R (hIGF1R), 0.251 to 1 nM on human IR (hIR) and 1.26 to 3.98 nM against ALK.

For the compound `COc1cc(CS(C)(=O)=O)ccc1Nc1nc(Nc2ccccc2C(N)=O)c2cc[nH]c2n1` [Example 19, 2-{[2-({2-(methyloxy)-4-[(methylsulfonyl)methyl]phenyl}amino)-1H-pyrrolo[2,3-d]pyrimidin-4-yl]amino}benzamide], the IC50 on human IGF1R (hIGF1R), against human IR (hIR) and on ALK was 1.26 to 3.98 nM each time.

With `COc1ccc(CS(C)(=O)=O)cc1Nc1nc(Nc2ccccc2C(N)=O)c2cc[nH]c2n1` [Example 20, 2-{[2-({2-(methyloxy)-5-[(methylsulfonyl)methyl]phenyl}amino)-1H-pyrrolo[2,3-d]pyrimidin-4-yl]amino}benzamide], the IC50 at human IGF1R (hIGF1R) was 5.01 to 200 nM; at human IR (hIR) it was 5.01 to 158 nM; against ALK, 5.01 to 200 nM.

Consider `CCCN1CCC=C(c2ccc(Nc3nc(Nc4ccc(C)cc4C(N)=O)c4cc[nH]c4n3)c(C)c2)C1` [Example 32, 5-methyl-2-[(2-{[2-methyl-4-(1-propyl-1,2,5,6-tetrahydro-3-pyridinyl)phenyl]amino}-1H-pyrrolo[2,3-d]pyrimidin-4-yl)amino]benzamide], for which the IC50 on human IGF1R (hIGF1R), against human IR (hIR) and against ALK was 1.26 to 3.98 nM each time.

Turning to `Cc1ccc(Nc2nc(Nc3cc(NC(=O)CN(C)C)ccc3C)nc3[nH]ccc23)c(C(N)=O)c1` [Example 34, 2-{[2-({5-[(N,N-dimethylglycyl)amino]-2-methylphenyl}amino)-1H-pyrrolo[2,3-d]pyrimidin-4-yl]amino}-5-methylbenzamide], the IC50 at human IGF1R (hIGF1R) is 5.01 to 200 nM; on human IR (hIR), 1.26 to 3.98 nM; at ALK, 5.01 to 200 nM.

For the compound `CCCN1CCC=C(c2ccc(Nc3nc(Nc4cc(C)ccc4C(N)=O)c4cc[nH]c4n3)c(C)c2)C1` [Example 35, 4-methyl-2-[(2-{[2-methyl-4-(1-propyl-1,2,5,6-tetrahydro-3-pyridinyl)phenyl]amino}-1H-pyrrolo[2,3-d]pyrimidin-4-yl)amino]benzamide], the values for the IC50 at human IGF1R (hIGF1R), on human IR (hIR) and against ALK were 5.01 to 200 nM, 5.01 to 158 nM and 5.01 to 200 nM, respectively.

As to `CCCN1CCC=C(c2ccc(Nc3nc(Nc4ccc(OC)cc4C(N)=O)c4cc[nH]c4n3)c(C)c2)C1` [Example 37, 5-(methyloxy)-2-[(2-{[2-methyl-4-(1-propyl-1,2,5,6-tetrahydro-3-pyridinyl)phenyl]amino}-1H-pyrrolo[2,3-d]pyrimidin-4-yl)amino]benzamide], the IC50 on human IGF1R (hIGF1R) was 5.01 to 200 nM; at ALK, 1.26 to 3.98 nM.

Take `Cc1ccc(NC(=O)CN(C)C)cc1Nc1nc(Nc2ccc(Cl)cc2C(N)=O)c2cc[nH]c2n1` [Example 109, 5-chloro-2-{[2-({5-[(N,N-dimethylglycyl)amino]-2-methylphenyl}amino)-1H-pyrrolo[2,3-d]pyrimidin-4-yl]amino}benzamide]: the IC50 is 1.26 to 3.98 nM at human IGF1R (hIGF1R), 0.251 to 1 nM against human IR (hIR) and 5.01 to 200 nM against ALK.

For `CNC(=O)c1c(F)cccc1Nc1nc(Nc2cc3c(cc2OC)CCN3C(=O)[C@@H]2CCCN2C)nc2[nH]ccc12` [Example 128, 2-fluoro-N-methyl-6-[(2-{[5-(methyloxy)-1-(1-methyl-L-prolyl)-2,3-dihydro-1H-indol-6-yl]amino}-1H-pyrrolo[2,3-d]pyrimidin-4-yl)amino]benzamide], the results for the IC50 on human IGF1R (hIGF1R), at human IR (hIR) and against ALK were 5.01 to 200 nM, 5.01 to 158 nM and 5.01 to 200 nM, respectively.

Turning to `CNC(=O)c1c(F)cccc1Nc1nc(Nc2cc3c(cc2OC)CCN3C(=O)[C@H]2CCCN2C)nc2[nH]ccc12` [Example 129, 2-fluoro-N-methyl-6-[(2-{[5-(methyloxy)-1-(1-methyl-D-prolyl)-2,3-dihydro-1H-indol-6-yl]amino}-1H-pyrrolo[2,3-d]pyrimidin-4-yl)amino]benzamide], the IC50 is 5.01 to 200 nM on human IGF1R (hIGF1R), 5.01 to 158 nM at human IR (hIR) and 5.01 to 200 nM on ALK.

For `CNC(=O)c1c(F)cccc1Nc1nc(Nc2ccc3c(c2)N(C(=O)CN(C)C)CC3)nc2[nH]ccc12` [Example 130, 2-[(2-{[1-(N,N-dimethylglycyl)-2,3-dihydro-1H-indol-6-yl]amino}-1H-pyrrolo[2,3-d]pyrimidin-4-yl)amino]-6-fluoro-N-methylbenzamide], the IC50 was 5.01 to 200 nM at human IGF1R (hIGF1R), 5.01 to 158 nM against human IR (hIR) and 5.01 to 200 nM at ALK.

In the case of `CNC(=O)c1c(F)cccc1Nc1nc(Nc2cc3c(cc2Cl)CCN3C(=O)CN(C)C)nc2[nH]ccc12` [Example 131, 2-[(2-{[5-chloro-1-(N,N-dimethylglycyl)-2,3-dihydro-1H-indol-6-yl]amino}-1H-pyrrolo[2,3-d]pyrimidin-4-yl)amino]-6-fluoro-N-methylbenzamide], the IC50 on human IGF1R (hIGF1R), on human IR (hIR) and at ALK was 1.26 to 3.98 nM each time.

The record behind these values is patent US7981903B2, “2-[2-{phenylamino}-1H-pyrrolo[2,3-D]pyrimidin-4-yl)amino] benzamide derivatives as IGF-1R inhibitors for the treatment of cancer” (GlaxoSmithKline LLC, priority 2007, dated 2011).
